Test results reported in publication PMC5390315 (Scientific Reports, 2017).
Values joined by “and” are separate entries in the source; they are usually repeats but may differ in a detail not shown here. Equal values may be shown once.

Legend:
[1] = system: A549; test: Antiproliferative MTT assay, A549; assay type: cell-based, human; details: Homo sapiens, A549, 72 h, mean ± SE
Protocol: (§1) Human T-cell leukemia (Jurkat) and human B-cell leukemia (SEM and RS4;11) cells were grown in RPMI-1640 medium (Gibco, Milano, Italy). Breast adenocarcinoma (MCF-7), human cervix carcinoma (HeLa), human lung adenocarcinoma (A549) and human colon adenocarcinoma (HT-29) cells were grown in DMEM medium (Gibco, Milano, Italy), all supplemented with 115 units/mL penicillin G (Gibco, Milano, Italy), 115 μg/mL streptomycin (Invitrogen, Milano, Italy), and 10% fetal bovine serum (FBS; Invitrogen, Milano, Italy). Stock solutions (10 mM) of the different compounds were obtained by dissolving them in DMSO. Individual wells of a 96-well tissue culture microtiter plate were inoculated with 100 μL of complete medium containing 8 × 10^3 cells. The plates were incubated at 37 °C in a humidified 5% CO2 incubator for 18 h prior to the experiments. After medium removal, 100 μL of fresh medium containing the test compound at different concentrations was added to each well in triplicate and incubated at 37 °C for 72 h. The percentage of DMSO in the medium never exceeded 0.25%. This was also the maximum DMSO concentration in all cell-based assays described below.

[2] = system: MCF-7; test: Antiproliferative MTT assay, MCF-7; assay type: cell-based, human; details: Homo sapiens, MCF7, 72 h, mean ± SE
Protocol: as §1

[3] = system: SEM cells; test: Antiproliferative MTT assay, SEM; assay type: cell-based, human; details: Homo sapiens, 72 h, mean ± SE
Protocol: as §1

[4] = system: PBL stimulated with PHA; test: Cytotoxicity in PHA-stimulated peripheral blood lymphocytes; assay type: cell-based; details: Homo sapiens, Lymphocyte, 72 h, MTT, mean ± SEM, read-out: IC50 PBLPHA
Protocol: Peripheral blood lymphocytes (PBL) from healthy donors were obtained from human peripheral blood (leucocyte rich plasma- buffy coats) from healthy volunteers using the Lymphoprep (Fresenius KABI Norge AS) gradient density centrifugation.
After extensive washing, cells were resuspended (1.0 × 10^6 cells/mL) in RPMI-1640 with 10% FBS and incubated overnight. For cytotoxicity evaluations in proliferating PBL cultures, non-adherent cells were resuspended at 5 × 10^5 cells/mL in growth medium, containing 2.5 μg/mL PHA (Irvine Scientific). Different concentrations of the test compounds were added, and viability was determined 72 h later by the MTT test. For cytotoxicity evaluations in resting PBL cultures, non-adherent cells were resuspended (5 × 10^5 cells/mL) and treated for 72 h with the test compounds, as described above.

[5] = system: tubulin; test: Inhibition of [3H]colchicine binding to tubulin; details: tubulin 1 μM, [3H]colchicine 5 μM
Protocol: To evaluate the effect of the compounds on tubulin assembly in vitro[41], varying concentrations of compounds were preincubated with 10 μM bovine brain tubulin in 0.8 M monosodium glutamate (pH adjusted to 6.6 with HCl in a 2.0 M stock solution) at 30 °C and then cooled to 0 °C. After addition of 0.4 mM GTP, the mixtures were transferred to 0 °C cuvettes in a recording spectrophotometer and warmed to 30 °C. Tubulin assembly was followed turbidimetrically at 350 nm. […] The capacity of the test compounds to inhibit colchicine binding to tubulin was measured as described, except that the reaction mixtures contained 1 μM tubulin, 5 μM [^3H]colchicine and 1 or 5 μM test compound.

[6] = system: HUVECs; test: Disruption of capillary-like tubes on Matrigel; assay type: cell-based, human; details: 100 nM (highest concentration), 24 h
Protocol: HUVECs were prepared from human umbilical cord veins, as previously described. The adherent cells were maintained in M200 medium supplemented with LSGS (Low Serum Growth Supplement), containing FBS, hydrocortisone, hEGF, bFGF, heparin, gentamycin/amphotericin (Life Technologies, Monza, Italy). Once confluent, the cells were detached by a trypsin–EDTA solution and used in experiments from the first to sixth passages.
Matrigel matrix (Basement Membrane Matrix, BD Biosciences, Italy) was kept at 4 °C for 3 h, when 230 μL of Matrigel solution was added to each well of a 24-well plate. After gelling at 37 °C for 30 min, gels were overlaid with 500 μL of medium containing 6 × 10^4 HUVECs. The cells were incubated over Matrigel for 6 h to allow capillary tubes to form. Different concentrations of test compound were added in the cultures and incubated for different times, and the disappearance of existing vasculature was monitored and photographed (five fields for each well: the four quadrants and the center) at a 10x magnification. Phase contrast images were recorded using a digital camera and saved as TIFF files. Image analysis was carried out using ImageJ image analysis software, and dimensional (percent area covered by HUVECs and total length of HUVECs network per field) and topological parameters (number of meshes and branching points per field) were determined. Values were expressed as percent change from control cultures grown with complete medium.

[7] = system: HeLa cells; test: Western blot analysis of cell cycle and apoptosis proteins; assay type: cell-based, human
Protocol: HeLa cells were incubated in the presence of 4i and, after different times, were collected, centrifuged, and washed two times with ice cold phosphate buffered saline (PBS). The pellet was then resuspended in lysis buffer. After the cells were lysed on ice for 30 min, lysates were centrifuged at 15000× g at 4 °C for 10 min. The protein concentration in the supernatant was determined using the BCA Protein Assay (Pierce, Italy). Equal amounts of protein (10 μg) were resolved using sodium dodecyl sulfate-polyacrylamide gel electrophoresis (SDS-PAGE) (Criterion Precast, BioRad, Italy) and transferred to a PVDF Hybond-P membrane (GE Healthcare). Membranes were blocked with a bovine serum albumin solution (5% in Tween PBS 1X), the membranes being gently rotated overnight at 4 °C. Membranes were then incubated with primary antibodies against caspase-9, PARP, cdc25c, p-H2AX^Ser139, cyclin B, p-cdc2^Tyr15 (all from Cell Signaling) or β-actin (Sigma-Aldrich) for 2 h at room temperature. Membranes were next incubated with peroxidase labeled secondary antibodies for 60 min. All membranes were visualized using ECL Select (GE Healthcare), and images were acquired using an Uvitec-Alliance imaging system (Uvitec, Cambridge, UK). To ensure equal protein loading, each membrane was stripped and reprobed with anti-β-actin antibody.

CCOc1ccc(-c2oc(C)nc2-c2cc(OC)c(OC)c(OC)c2)cc1 [Compound 4i, 4-(3,4,5-Trimethoxyphenyl)-5-(4-ethoxyphenyl)-2-methyloxazole]
IC50 [1]: 0.5 ± 0.1 nM
IC50 [2]: 4.5 ± 1.8 nM
IC50 [3]: 6.1 ± 2.3 nM
IC50 [4]: 18300 ± 1500 nM
Colchicine binding % inhibition ± S.D, 1 μM drug ([5]; 1 μM drug): 62 ± 0.4%
Colchicine binding % inhibition ± S.D, 5 μM drug ([5]; 5 μM drug): 82% and 86 ± 1%
antivascular effect on Matrigel preformed tubular structures [6]: did not show a significant antivascular effect
expression of Mcl-1 ([7]; 100 nM): only slightly decreased
total cdc25c expression ([7]; 100 nM, 24 and 48 h): reduced
XIAP expression ([7]; 24 and 48 h): significantly reduced
cyclin B1 expression ([7]; 24 and 48 h, concentration dependent): marked increase
PARP cleavage ([7]; 50 or 100 nM, 24 and 48 h): appearance of its cleavage fragments
phosphorylation of γH2A.X (Ser139) ([7]; 48 h): great increase
expression of phosphorylated cdc2 ([7]; most noticeable at 24 h, 100 nM): decreased
